Data published in patent publication US20250129054A1 (Terran Biosciences Inc., priority 2022, published 2025).

Assay: Terminal plasma and brain concentration at the end of the zero maze study
Format: in vivo, Sprague-Dawley rats
Settings: 5, 15 and 30 mg/kg ip, male SD rats
Description: Terminal sampling. At the end of the study, terminal blood was collected from 2 of the vehicle treated rats (>5 mL) and from all methylone HCl treated rats (500 uL) by CP under CO2. Blood samples were placed into Eppendorf tubes on ice containing 22 μL/mL blood (vehicle treated) or 11 μL EDTA (93 mg/mL) (Methylone HCl treated rats) and gently mixed. After no longer than 30 min, blood samples were centrifuged at 10,000 rpm×3 min and plasma samples (>2 mL (vehicle) or 2×100 μL (Methylone HCl treated) placed into Eppendorf tubes (Vehicle) or 96 well plates on dry ice. Immediately after blood sampling, brains were excised, rinsed in saline, blotted, weighed and snap-frozen in liquid N2. All samples were stored at −20
Terminal sampling. At the end of the study, terminal blood was collected from 2 of the vehicle treated rats (>5 mL) and from all S-methylone HCl treated rats (500 uL) by CP under CO2. Blood samples were placed into Eppendorf tubes on ice containing 22 μL/mL blood (vehicle treated) or 11 μL EDTA (93 mg/mL) (S-methylone HCl treated rats) and gently mixed. […]

CNC(C)C(=O)c1ccc2c(c1)OCO2 (racemic) [racemic methylone]
concentration in plasma and brain at the end of the zero maze study: increased in both brain and plasma at the higher doses
